What is called Kd is the equilibrium constant for the complex coming apart. Read a low Kd as higher affinity.

The results in this text go back to publication PMC4880925 (Scientific Reports, 2016).

Assay [1] deals with T1, CYP144A1 (Mycobacterium tuberculosis, UniProt P9WPL1).
T1 construct: gene cyp144
Format: binding.
Target sequence in this assay (P9WPL1 whole entry): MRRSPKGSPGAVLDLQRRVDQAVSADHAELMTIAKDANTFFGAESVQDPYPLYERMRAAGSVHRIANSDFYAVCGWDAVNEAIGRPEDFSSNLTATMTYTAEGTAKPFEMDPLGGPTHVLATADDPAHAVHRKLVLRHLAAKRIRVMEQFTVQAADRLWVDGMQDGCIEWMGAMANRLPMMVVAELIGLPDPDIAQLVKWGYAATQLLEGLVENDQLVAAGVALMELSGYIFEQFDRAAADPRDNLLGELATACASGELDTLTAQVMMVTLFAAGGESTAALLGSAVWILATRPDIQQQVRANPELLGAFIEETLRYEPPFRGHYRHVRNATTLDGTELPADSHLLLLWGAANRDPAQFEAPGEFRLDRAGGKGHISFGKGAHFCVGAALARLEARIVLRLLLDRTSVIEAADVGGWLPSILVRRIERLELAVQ

The target in assay [2] is T1, CYP144A1. As to the kind of experiment: […]; supported by EPR and DSC (Tm […] to […] °C). Format: binding.
Target sequence in this assay (P9WPL1 31-434): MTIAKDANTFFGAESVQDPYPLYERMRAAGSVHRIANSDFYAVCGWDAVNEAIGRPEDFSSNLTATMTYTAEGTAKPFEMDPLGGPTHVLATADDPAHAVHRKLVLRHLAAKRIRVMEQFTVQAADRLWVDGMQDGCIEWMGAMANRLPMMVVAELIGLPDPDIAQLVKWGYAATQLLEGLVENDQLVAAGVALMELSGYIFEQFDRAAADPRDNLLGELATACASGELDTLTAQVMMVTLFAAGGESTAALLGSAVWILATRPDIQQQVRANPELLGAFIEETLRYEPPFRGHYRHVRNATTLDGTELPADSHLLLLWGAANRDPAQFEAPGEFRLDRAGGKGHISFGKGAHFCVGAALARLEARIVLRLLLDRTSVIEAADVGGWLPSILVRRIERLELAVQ

Take `Clc1ccccc1C(c1ccccc1)(c1ccccc1)n1ccnc1` [clotrimazole]: the “differential scanning calorimetry, Tm raised from 47 to 50 °C” value in assay [1] turned out to be 50 °C.

As for `Clc1ccc(COC(Cn2ccnc2)c2ccc(Cl)cc2Cl)cc1` (centres unmarked) [econazole], the equilibrium dissociation constant (Kd) in assay [2] is 720 ± 180 nM.
